Measurements taken from patent publication US9447033B2, “Potassium channel blockers” (Japan Tobacco Inc., priority 2008, dated 2016).

Legend:
human Kv1.3 = biological target: T1, human Kv1.3 (Homo sapiens, UniProt P22001); test: Kv1.3 Autopatch electrophysiology (whole cell); assay type: cell-based; conditions: compound at 1 μM; inhibition of charge movement relative to control; room temperature; read-out: hKv1.3 % Inh.
T1 construct: expressed in transfected cells
Method: Kv1.3 Autopatch Electrophysiology Method
Cells stably transfected with cDNA for human Kv1.3 (in pcDNA3.1) were grown in Ex-cell 302 serum-free medium for CHO cells, supplemented with 10 μl/ml [100×] glutamine, 500 μg/ml G418 ([…]), and 1% HT supplement (50×, hypoxanthine and thymidine). Compounds were tested on these cells using the AutoPatch technology in whole cell mode.
The external bathing solution contained (in mM): 150 NaCl, 10 KCl, MgCl2, 3 CaCl2, 10 HEPES, pH 7.4 with NaOH. Patch pipettes were filled with an electrode solution of composition (in mM): 100 K-Gluconate, 20 KCl, 1 MgCl2, CaCl2, 10 HEPES, 11 EGTA, 5 ATP-Na2, 2 Glutathione pH 7.2 with KOH.
Compounds were dissolved in DMSO (100%) and made up in the external bather at a concentration of 1 μM immediately prior to use. All experiments were conducted at room temperature.
A cell suspension (10 ml), with a density of 6×10^6 cells, was aliquoted into a 15 ml centrifuge tube and stored at 4° C. before use. Prior to use a tube was taken and centrifuged at 1000 rpm for 4 mins at room temperature. The supernatant was then discarded, leaving a cell pellet at the bottom of the tube. The pellet was then resuspended using 1 ml of cold (4° C.), filtered (0.22 μm), 0.05% BSA/bather solution (0.05 g BSA/100 ml bather). The bottom of the tube was manually agitated followed by gentle tituration. The cell suspension was then placed in the AutoPatch™ temperature controlled cell-hotel at 14° C. and regularly titurated.
A length of Teflon capillary tubing was dipped into the cell suspension solution, and a column of fluid was taken up by negative pressure. The column of fluid was in electrically connectivity with a Ag/AeCl reference electrode. Borosilicate glass patch pipettes (from 1.5 mm OD, thin-walled filamented, GC150-TF capillary glass, Harvard) were pulled using a DMZ pipette puller (Zeitz Instruments), and were back-filled using the internal pipette solution, being careful that no bubbles remained at the tip or in the body of the pipette. Patch pipettes typically had resistances of 2.5-3.5 MΩ. Once filled, the pipette tip and a proportion of the shaft (˜15 mm) were dipped into Sigmacote (Sigma). The recording pipettes were placed in a multiwell array and mounted on the AutoPatch™ machine. Automated patch-clamping and drug-application was initiated by the operator, but thereafter AutoPatch.exe continued the experiment providing that pre-set conditions and criteria were satisfied.
Whole cell patch-clamp recordings were made using the AutoPatch™ rig, which incorporated an EPC9 or EPC10 amplifier (HEKA, Germany) under control of Pulse software (v8.54 or v8.76, HEKA, Germany), a cell applicator, automated drug application system (DAS), valve controller (VFI) and a suction device all at room temperature. This equipment was completely under the control of AutoPatch.exe and operator intervention was only made when there was a requirement to refill the bather reservoirs or to prevent the loss of a cell due to a technical error. […]
Electrophysiology voltage-step protocols and analysis of data was performed as follows. […] Online analysis of the hKv1.3 current during the application of compounds was performed by the Pulse (v8.54 or v8.76, HEKA, Germany), Excel (Microsoft, USA) and AutoPatch™ software, with the total charge measured during the whole of voltage step. Inhibition of charge movement in the presence of drug was calculated relative to control.

hKv1.5 = hKv1.5 (Homo sapiens, UniProt P22460); test: Kv1.5 Autopatch electrophysiology (whole cell); assay type: cell-based; conditions: hKv1.5 current, test concentration not given, read-out: hKv1.5 % Inh.
Method: Kv1.5 Autopatch Electraphysiogogy Method
The external bathing solution contained (in mM): 150 NaCl, 10 KCl, […], 3 MgCl2, 1 CaCl2, 10 HEPES, pH 7.4. Patch pipettes were filled with an electrode solution of composition (in mM): 160 KCl, 0.5 MgCl2, 10 HEPES, 1 EGTA, pH 7.4 with KOH.
Compounds were dissolved in DMSO (100%) and made up in the external bather at a concentration of 1 μM. All experiments were conducted at room temperature (22-24° C.).
A cell suspension (10 ml), with a density of 100,000 cells/ml, was aliquoted into a 15 ml centrifuge tube and transferred to an incubator (37° C., 5% CO2) for approximately one hour before use. Following 60 min incubation, a tube was taken and centrifuged at 1000 rpm for 4 mins at mom temperature. 9.5 ml supernatant was thence discarded, leaving a cell pellet a the bottom of the tube. The pellet was then resuspended using 100 μl of cold (4° C.), filtered (0.22 μm), 0.2% BSA/bather solution (0.02 g BSA/10 ml bather). The bottom of the tube was manually agitated gently until the solution became cloudy with cells. The 100 μl cell resuspension solution was then stored on the bench at 4° C. (using a Peltier-based temperature control device) until used.
A length of capillary glass (1B150F-4, WPI) was dipped into the cell suspension solution, such that ˜3 cm column of fluid was taken up by capillary action. A Ag/AgCl wire was dropped into the non-dipped end of the capillary also. The outside of the solution-filled end of the capillary was then dried and the capillary was loaded into the AutoPatch™.
Borosilicate glass patch pipettes (from 1.5 mm OD, thin-walled filamented, GC150-TF capillary glass, Harvard) were pulled using a DMZ pipette puller (Zeitz instruments), and were back-filled using the internal pipette solution, being careful that no bubbles remain at the tip or in the body of the pipette. Patch pipettes typically had resistances of 2.3-3.5 MΩ. Once filled, the pipette tip and a proportion of the shaft (˜15 mm) were dipped into Sigmacote (Sigma). The recording pipette was then loaded into the AutoPatch™. Automated patch-clamping was initiated by the operator, but thereafter AutoPatch.exe continued the experiment providing that pre-set conditions and criteria were satisfied.
Whole cell patch-clamp recordings were made using the AutoPatch™ rig, which incorporated an EPC9 amplifier (HEKA, Germany) under control of Pulse software (v8.54, HEKA, Germany), a motion controller with 2 translators (Newport, UK), valve controller (VFI) and a c-level suction device all at room temperature (22-24° C.). This equipment was completely under the control of AutoPatch.exe and operator intervention was only made when there was a requirement to refill the drug reservoirs or to prevent the loss of a cell due to a technical error. Cells with an Rseries greater than 18 MΩ were discounted from the experiment.
Qualification stages prior to perfusion and drug application ensured that the observed current met the criteria for the experiment. Only those cells with an 1K>500 pA were used for experiments. Cells were continuously perfused with external solution at a flow rate of 1.8-2 ml/minute. […]
Electrophysiology voltage-step protocols and analysis of data was performed as follows. […] Currents were analysed using Pulsefit software (v8.54, HEKA, Germany), with the total charge measured during the whole of the voltage step. […]

T1 sequence (P22001 whole entry): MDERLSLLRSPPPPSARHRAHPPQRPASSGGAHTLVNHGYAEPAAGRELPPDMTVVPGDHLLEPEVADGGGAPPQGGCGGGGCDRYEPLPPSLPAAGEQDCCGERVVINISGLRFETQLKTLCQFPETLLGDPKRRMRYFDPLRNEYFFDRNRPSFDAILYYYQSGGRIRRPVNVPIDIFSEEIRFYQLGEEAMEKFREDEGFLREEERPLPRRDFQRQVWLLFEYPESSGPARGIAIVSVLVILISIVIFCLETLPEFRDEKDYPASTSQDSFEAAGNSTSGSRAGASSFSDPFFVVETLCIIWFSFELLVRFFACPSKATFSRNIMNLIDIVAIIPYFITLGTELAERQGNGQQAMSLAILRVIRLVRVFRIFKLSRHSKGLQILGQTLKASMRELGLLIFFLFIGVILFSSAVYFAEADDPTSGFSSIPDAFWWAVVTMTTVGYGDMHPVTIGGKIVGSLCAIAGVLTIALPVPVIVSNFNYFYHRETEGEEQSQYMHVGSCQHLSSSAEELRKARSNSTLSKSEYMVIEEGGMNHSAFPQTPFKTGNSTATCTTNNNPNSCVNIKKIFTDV
hKv1.5, sequence (P22460 whole entry): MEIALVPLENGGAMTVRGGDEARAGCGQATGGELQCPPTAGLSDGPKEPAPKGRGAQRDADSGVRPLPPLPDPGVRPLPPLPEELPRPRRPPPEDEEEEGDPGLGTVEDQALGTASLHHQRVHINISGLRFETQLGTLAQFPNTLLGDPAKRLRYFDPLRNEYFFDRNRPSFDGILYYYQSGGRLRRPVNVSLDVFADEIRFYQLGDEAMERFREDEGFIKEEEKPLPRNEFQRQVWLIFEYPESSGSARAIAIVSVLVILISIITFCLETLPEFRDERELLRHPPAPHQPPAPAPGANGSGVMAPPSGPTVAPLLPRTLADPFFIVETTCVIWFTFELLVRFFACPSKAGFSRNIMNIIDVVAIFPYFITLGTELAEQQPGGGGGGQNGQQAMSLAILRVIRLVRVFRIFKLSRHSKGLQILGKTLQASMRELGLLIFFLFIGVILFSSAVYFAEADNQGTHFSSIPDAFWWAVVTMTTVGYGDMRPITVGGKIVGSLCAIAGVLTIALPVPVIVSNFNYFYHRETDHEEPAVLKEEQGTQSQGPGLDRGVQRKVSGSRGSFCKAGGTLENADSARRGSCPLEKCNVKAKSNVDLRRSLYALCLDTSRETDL

SMILES	inhibition at 1 µM (human Kv1.3) [%]	inhibition at 1 µM (hKv1.5) [%]
Cn1ccc(S(=O)(=O)N(Cc2ccc(Cl)cc2)c2cccc(C(=O)NCCO)c2)n1 [Example 1, 3-[(4-Chloro-benzyl)-(1-methyl-1H-pyrazole-3-sulfonyl)-amino]-N-(2-hydroxy-ethyl)-benzamide]	86	48
CC(C)NC(=O)c1cccc(N(Cc2ccccc2)S(=O)(=O)c2cccnc2)c1 [Example 3, 3-[Benzyl-(pyridine-3-sulfonyl)-amino]-N-isopropyl-benzamide]	92	52
O=C(Nc1ccc2cn[nH]c2c1)c1cccc(N(Cc2ccccc2)S(=O)(=O)c2ccccc2)c1 [Example 4, 3-(Benzenesulfonyl-benzyl-amino)-N-(1H-indazol-6-yl)-benzamide]	88	99
CC(=O)Nc1ccc(S(=O)(=O)N(Cc2ccccc2)c2cccc(C(=O)NC(C)C)c2)cc1 [Example 5, 3-[(4-Acetylamino-benzenesulfonyl)-benzyl-amino]-N-isopropyl-benzamide]	45	18
CC(C)NC(=O)c1cccc(N(Cc2ccc(Cl)cc2)S(=O)(=O)c2ccnn2C)c1 [Example 7, 3-[(4-Chloro-benzyl)-(2-methyl-2H-pyrazole-3-sulfonyl)-amino]-N-isopropyl-benzamide]	57	54
